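Interpolation was linear, between the two tested concentrations surrounding the appropriate level; five concentrations were tested over 48 hours in 96-well plates. TGI denotes the concentration required for complete inhibition of growth.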
What was measured:
Assay in all cases: DTP human tumour cell line panel, 48 h
UACC-257 melanoma = system: UACC-257 melanoma
HOP-92 NSCLC = system: HOP-92 NSCLC
NCI-H226 lung = system: NCI-H226 lung
RPMI-8226 leukemia = system: RPMI-8226 leukemia
PC-3 prostate = system: PC-3 prostate
KM12 colon = system: KM12 colon
MALME-3M melanoma = system: MALME-3M melanoma
SNB-75 CNS = system: SNB-75 CNS
K-562 leukemia = system: K-562 leukemia
CCRF-CEM leukemia = system: CCRF-CEM leukemia
SF-268 CNS = system: SF-268 CNS
M14 melanoma = system: M14 melanoma
UO-31 renal = system: UO-31 renal
NCI/ADR-RES ovarian = system: NCI/ADR-RES ovarian
SK-MEL-28 melanoma = system: SK-MEL-28 melanoma
HT29 colon = system: HT29 colon
UACC-62 melanoma = system: UACC-62 melanoma
786-0 renal = system: 786-0 renal
HCT-15 colon = system: HCT-15 colon
SN12C renal = system: SN12C renal
MCF7 breast = system: MCF7 breast
TK-10 renal = system: TK-10 renal
BT-549 breast = system: BT-549 breast
IGROV1 ovarian = system: IGROV1 ovarian
CAKI-1 renal = system: CAKI-1 renal
SR leukemia = system: SR leukemia
NCI-H23 lung = system: NCI-H23 lung
RXF 393 renal = system: RXF 393 renal
T-47D breast = system: T-47D breast
COLO 205 colon = system: COLO 205 colon
MDA-N = system: MDA-N
MDA-MB-231 breast = system: MDA-MB-231 breast
DU-145 prostate = system: DU-145 prostate
NCI-H522 lung = system: NCI-H522 lung
NCI-H460 lung = system: NCI-H460 lung
MOLT-4 leukemia = system: MOLT-4 leukemia
HCC-2998 colon = system: HCC-2998 colon
A549 NSCLC = system: A549 NSCLC
MDA-MB-435 = system: MDA-MB-435
SNB-19 CNS = system: SNB-19 CNS
SK-MEL-5 melanoma = system: SK-MEL-5 melanoma
SK-OV-3 ovarian = system: SK-OV-3 ovarian
SW-620 colon = system: SW-620 colon
SF-295 CNS = system: SF-295 CNS
OVCAR-8 ovarian = system: OVCAR-8 ovarian
HL-60(TB) leukemia = system: HL-60(TB) leukemia
OVCAR-4 ovarian = system: OVCAR-4 ovarian
ACHN renal = system: ACHN renal
HOP-62 NSCLC = system: HOP-62 NSCLC
LOX IMVI melanoma = system: LOX IMVI melanoma
EKVX NSCLC = system: EKVX NSCLC
OVCAR-3 ovarian = system: OVCAR-3 ovarian
SK-MEL-2 melanoma = system: SK-MEL-2 melanoma
SF-539 CNS = system: SF-539 CNS
U251 CNS = system: U251 CNS
OVCAR-5 ovarian = system: OVCAR-5 ovarian
HCT-116 colon = system: HCT-116 colon
A498 renal = system: A498 renal

SMILES: CC(C)(C)C1=NC(=S)SC2=NC(=O)C3(NN21)c1ccccc1-c1ccccc13
- TGI (UACC-257 melanoma): > 10 µM
- TGI (HOP-92 NSCLC): > 10 µM
- TGI (NCI-H226 lung): > 10 µM
- TGI (RPMI-8226 leukemia): > 10 µM
- TGI (PC-3 prostate): > 10 µM
- TGI (KM12 colon): > 10 µM
- TGI (MALME-3M melanoma): > 10 µM
- TGI (SNB-75 CNS): > 10 µM
- TGI (K-562 leukemia): > 10 µM
- TGI (CCRF-CEM leukemia): > 10 µM
- TGI (SF-268 CNS): > 10 µM
- TGI (M14 melanoma): > 10 µM
- TGI (UO-31 renal): > 10 µM
- TGI (NCI/ADR-RES ovarian): > 10 µM
- TGI (SK-MEL-28 melanoma): > 10 µM
- TGI (HT29 colon): > 10 µM
- TGI (UACC-62 melanoma): > 10 µM
- TGI (786-0 renal): > 10 µM
- TGI (HCT-15 colon): > 10 µM
- TGI (SN12C renal): > 10 µM
- TGI (MCF7 breast): > 10 µM
- TGI (TK-10 renal): > 10 µM
- TGI (BT-549 breast): > 10 µM
- TGI (IGROV1 ovarian): > 10 µM
- TGI (CAKI-1 renal): > 10 µM
- TGI (SR leukemia): > 10 µM
- TGI (NCI-H23 lung): > 10 µM
- TGI (RXF 393 renal): > 10 µM
- TGI (T-47D breast): > 10 µM
- TGI (COLO 205 colon): > 10 µM
- TGI (MDA-N): > 10 µM
- TGI (MDA-MB-231 breast): > 10 µM
- TGI (DU-145 prostate): > 10 µM
- TGI (NCI-H522 lung): > 10 µM
- TGI (NCI-H460 lung): > 10 µM
- TGI (MOLT-4 leukemia): > 10 µM
- TGI (HCC-2998 colon): > 10 µM
- TGI (A549 NSCLC): > 10 µM
- TGI (MDA-MB-435): > 10 µM
- TGI (SNB-19 CNS): > 10 µM
- TGI (SK-MEL-5 melanoma): > 10 µM
- TGI (SK-OV-3 ovarian): > 10 µM
- TGI (SW-620 colon): > 10 µM
- TGI (SF-295 CNS): > 10 µM
- TGI (OVCAR-8 ovarian): > 10 µM
- TGI (HL-60(TB) leukemia): > 10 µM
- TGI (OVCAR-4 ovarian): > 10 µM
- TGI (ACHN renal): > 10 µM
- TGI (HOP-62 NSCLC): > 10 µM
- TGI (LOX IMVI melanoma): > 10 µM
- TGI (EKVX NSCLC): > 10 µM

SMILES: C=C1[C@@H](OC(C)=O)[C@H]2[C@@H](OC(C)=O)[C@@](C)(OC(C)=O)C[C@]2(OC(C)=O)C(=O)[C@@H](C)/C=C/C(C)(C)C(=O)C[C@H]1OC(C)=O
- TGI (UACC-257 melanoma): > 100 µM
- TGI (HOP-92 NSCLC): > 100 µM
- TGI (NCI-H226 lung): > 100 µM
- TGI (RPMI-8226 leukemia): > 100 µM
- TGI (PC-3 prostate): > 100 µM
- TGI (KM12 colon): > 100 µM
- TGI (OVCAR-3 ovarian): > 100 µM
- TGI (MALME-3M melanoma): > 100 µM
- TGI (SNB-75 CNS): > 100 µM
- TGI (K-562 leukemia): > 100 µM
- TGI (CCRF-CEM leukemia): > 100 µM
- TGI (SK-MEL-2 melanoma): > 100 µM
- TGI (M14 melanoma): > 100 µM
- TGI (UO-31 renal): > 100 µM
- TGI (NCI/ADR-RES ovarian): > 100 µM
- TGI (SK-MEL-28 melanoma): > 100 µM
- TGI (HT29 colon): > 100 µM
- TGI (UACC-62 melanoma): > 100 µM
- TGI (SF-539 CNS): > 100 µM
- TGI (786-0 renal): > 100 µM
- TGI (HCT-15 colon): > 100 µM
- TGI (U251 CNS): > 100 µM
- TGI (SN12C renal): > 100 µM
- TGI (MCF7 breast): > 100 µM
- TGI (TK-10 renal): > 100 µM
- TGI (IGROV1 ovarian): > 100 µM
- TGI (CAKI-1 renal): > 100 µM
- TGI (NCI-H23 lung): > 100 µM
- TGI (RXF 393 renal): > 100 µM
- TGI (T-47D breast): > 100 µM
- TGI (COLO 205 colon): > 100 µM
- TGI (MDA-N): > 100 µM
- TGI (MDA-MB-231 breast): > 100 µM
- TGI (DU-145 prostate): > 100 µM
- TGI (NCI-H522 lung): > 100 µM
- TGI (MOLT-4 leukemia): > 100 µM
- TGI (OVCAR-5 ovarian): > 100 µM
- TGI (HCC-2998 colon): > 100 µM
- TGI (A549 NSCLC): > 100 µM
- TGI (MDA-MB-435): > 100 µM
- TGI (SNB-19 CNS): > 100 µM
- TGI (SK-MEL-5 melanoma): > 100 µM
- TGI (SK-OV-3 ovarian): > 100 µM
- TGI (HCT-116 colon): > 100 µM
- TGI (SF-295 CNS): > 100 µM
- TGI (OVCAR-8 ovarian): > 100 µM
- TGI (OVCAR-4 ovarian): > 100 µM
- TGI (ACHN renal): > 100 µM
- TGI (HOP-62 NSCLC): > 100 µM
- TGI (LOX IMVI melanoma): > 100 µM
- TGI (EKVX NSCLC): > 100 µM

SMILES: Cc1ccc(N=NC(=O)NNc2ccc(C)c([N+](=O)[O-])c2)cc1[N+](=O)[O-]
- TGI (UACC-257 melanoma): 88.3 µM
- TGI (NCI-H226 lung): > 100 µM
- TGI (RPMI-8226 leukemia): 85.8 µM
- TGI (PC-3 prostate): > 100 µM
- TGI (OVCAR-3 ovarian): 57.4 µM
- TGI (MALME-3M melanoma): 83.3 µM
- TGI (SNB-75 CNS): 95.9 µM
- TGI (K-562 leukemia): 50.3 µM
- TGI (A498 renal): 63.2 µM
- TGI (CCRF-CEM leukemia): > 100 µM
- TGI (SF-268 CNS): > 100 µM
- TGI (SK-MEL-2 melanoma): 30.3 µM
- TGI (M14 melanoma): > 100 µM
- TGI (UO-31 renal): 82.8 µM
- TGI (SK-MEL-28 melanoma): 77.4 µM
- TGI (HT29 colon): > 100 µM
- TGI (UACC-62 melanoma): 50.2 µM
- TGI (786-0 renal): 90.4 µM
- TGI (HCT-15 colon): > 100 µM
- TGI (U251 CNS): > 100 µM
- TGI (SN12C renal): > 100 µM
- TGI (MCF7 breast): 69.5 µM
- TGI (TK-10 renal): > 100 µM
- TGI (BT-549 breast): > 100 µM
- TGI (IGROV1 ovarian): > 100 µM
- TGI (CAKI-1 renal): > 100 µM
- TGI (SR leukemia): > 100 µM
- TGI (NCI-H23 lung): > 100 µM
- TGI (T-47D breast): > 100 µM
- TGI (MDA-N): > 100 µM
- TGI (MDA-MB-231 breast): > 100 µM
- TGI (DU-145 prostate): > 100 µM
- TGI (NCI-H522 lung): 36.8 µM
- TGI (NCI-H460 lung): 77 µM
- TGI (MOLT-4 leukemia): 65.5 µM
- TGI (OVCAR-5 ovarian): > 100 µM
- TGI (HCC-2998 colon): 33 µM
- TGI (A549 NSCLC): > 100 µM
- TGI (MDA-MB-435): > 100 µM
- TGI (SNB-19 CNS): > 100 µM
- TGI (SK-MEL-5 melanoma): 77.7 µM
- TGI (SW-620 colon): > 100 µM
- TGI (HCT-116 colon): > 100 µM
- TGI (OVCAR-8 ovarian): > 100 µM
- TGI (HL-60(TB) leukemia): 50.4 µM
- TGI (OVCAR-4 ovarian): 82.6 µM
- TGI (ACHN renal): 90.3 µM
- TGI (HOP-62 NSCLC): 63.5 µM
- TGI (LOX IMVI melanoma): 36.7 µM

— PubChem BioAssay (NCI)
